Data set [1] can be described thus: Cytotoxicity determination (CCK-8, without addition of virus). In kind it is cell-based. Particulars: human, HEp-2 cells (uninfected), no virus, Table C = greater than 100 μM, Table D = equal to or less than 100 μM and greater than 10 μM. Here is the method: CPE reduction assays are performed as described by Sidwell and Huffman et al., Appl. Microbiol. (1971) 22(5):797-801 with slight modifications. HEp-2 cells (ATCC#, CCL-23) are seeded at a density of 1,500 cells/30 μL/well into the 384-well cell plate(s) (Corning#3701) one day prior to the assay. Compounds are added into 384-well cell plates by Labcyte POD 810 Plate Assembler system. Each of the test compounds is provided to duplicate wells of a 384-well cell plate at final concentrations starting from 100 μM or 1 μM using 1/3 stepwise dilutions for 9 points. Quick-thaw Respiratory Syncytial Virus (RSV) long strain (ATCC#VR-26) stock in a 37° C. water bath. Place on ice until ready to use. Viruses are diluted to the concentration of 100 TCID50/30 μL with medium and 30 μl diluted RSV are added into related wells of 384-well cell plates. For each plate, sixteen wells are set aside as uninfected, untreated cell controls (CC), and nine wells per test plate receive virus only as a control for virus replication (VC). The final DMSO concentration of all wells is 1%. Place the plates at 37° C., 5% CO2 for 5 days.
In order to determine the compound cytotoxicity, in parallel, each of the compounds is applied to duplicate wells in a 384-well cell plate at serial final concentrations starting from 100 μM using ½ stepwise dilutions for 7 points without addition of virus. Incubate the cells at 37° C., 5% CO2 for 5 days. Add 6 μL CCK-8 into each well and incubate in a CO2 incubator at 37° C. for 3-4 h. Read the plates to obtain the optical densities which are used to calculate 50% cytotoxicity concentration (CC50).

In another data set the target is recombinant RSV complex (Human respiratory syncytial virus A, UniProt P28887). Put plainly: RSV polymerase inhibition assay. The format is biochemical. Particulars: 10 nM recombinant RSV complex, 2 h at 30° C.; Table E = <1 μM, Table F = <50 μM; read-out: IC50. Here is the method: Standard RSV polymerase assays were conducted in the presence of 10 nM recombinant RSV complex in a reaction buffer containing Tris-HCl pH7.5, 6 mM MgCl2, and other additives and substrates including RNA oligonucleotides and radionucleotides. Standard reactions were incubated in 96-well plate format for 2 h at 30° C., in the presence of increasing concentration of inhibitor. The reaction was stopped with 90 μL of 0.1M EDTA, and the reaction product was transferred to a “reading” 96-well plate. After washing of the plate, radiolabeled RNA products were detected according to standard procedures with a Trilux Topcount scintillation counter. The compound concentration at which the enzyme-catalyzed rate was reduced by 50% (IC50) was calculated by fitting the data to a non-linear regression (sigmoidal).

Data set [2] concerns RSV subgenomic replicon 395 HeLa and APC126. Description: RSV subgenomic replicon assay (Renilla luciferase). The note with it: RSV replicon cells (395 HeLa 7 days or APC126 3 days), Table G = less than 1 μM, Table H = equal to or higher than 1 μM and less than 50 μM. The format is cell-based. An excerpt:
The RSV subgenomic replicon 395 HeLa and APC126 were licensed from Apath (Brooklyn, N.Y.) and were originally developed by Dr. Mark Meeples of Center for Vaccines & Immunity, the Research Institute at Nationwide Children's Hospital in Columbus, Ohio. To generate subgenomic RSV replicon, three glycoprotein genes, those for SH, G, and F, from a full-length recombinant GFP-expressing (rg) RSV antigenomic cDNA were deleted. In their place, a blasticidin S deaminase (bsd) gene was inserted. Through multiple steps, the RSV replicon was established in HeLa cells (395 Hela) or BHK cells (APC126). Both 395 HeLa and APC126 cells were cultured in Dulbecco's Modified Eagle Medium (DMEM) containing 4500 mg/L D-glucose, L-glutamine, and 110 mg/L sodium pyruvate (Invitrogen, Cat. #11995-040). The medium was further supplemented with 10% (v/v) fetal bovine serum (FBS) (Mediatech, Cat. #35-010-CV), 1% (v/v) penicillin/streptomycin (Mediatech, Cat. #30-002-CI), and 10 μg/mL of Blasticidin (BSD) (Invivogen, Cat. code ant-bl-1). Cells were maintained at 37° C. in a humidified 5% CO2 atmosphere.
Determination of 50% inhibitory concentration (EC50), 90% inhibitory concentration (EC90) and 50% cytotoxic concentration (CC50) in RSV replicon cells were performed by the following procedure. On the first day, 5000 RSV replicon cells per well were plated in a 96-well plate. On the following day, compounds to be tested were solubilized in 100% DMSO to 100X the desired final testing concentration. Each compound was serially diluted (1:3) up to 9 distinct concentrations. Compounds in 100% DMSO were reduced to 10% (v/v) DMSO by diluting 1:10 in cell culture media. A 10 μL sample of the compounds diluted to 10% (v/v) DMSO with cell culture media was used to treat the RSV replicon cells in 96-well format. The final DMSO concentration was 1% (v/v). Cells were incubated with compounds for 7 days (for 395Hela) or 3 days (for APC126) at 37° C. in a 5% CO2 atmosphere. In each assay, positive control that was previously characterized in the RSV replicon assay was included.
The Renilla Luciferase Assay System (Promega, Cat. #E2820) was used to measure anti-RSV replicon activity. Assay plates were set up as stated above. Luminescence was recorded using a Perkin Elmer multilabel counter Victor3V. EC50, the concentration of the drug required for reducing RSV replicon RNA by 50% in relation to the untreated cell control value, was calculated from the plot of percentage reductions of the […] against the drug concentrations using the Microsoft Excel forecast function.

Setting [3] is: human respiratory syncytial virus.

Sequence of recombinant RSV complex (P28887 whole entry): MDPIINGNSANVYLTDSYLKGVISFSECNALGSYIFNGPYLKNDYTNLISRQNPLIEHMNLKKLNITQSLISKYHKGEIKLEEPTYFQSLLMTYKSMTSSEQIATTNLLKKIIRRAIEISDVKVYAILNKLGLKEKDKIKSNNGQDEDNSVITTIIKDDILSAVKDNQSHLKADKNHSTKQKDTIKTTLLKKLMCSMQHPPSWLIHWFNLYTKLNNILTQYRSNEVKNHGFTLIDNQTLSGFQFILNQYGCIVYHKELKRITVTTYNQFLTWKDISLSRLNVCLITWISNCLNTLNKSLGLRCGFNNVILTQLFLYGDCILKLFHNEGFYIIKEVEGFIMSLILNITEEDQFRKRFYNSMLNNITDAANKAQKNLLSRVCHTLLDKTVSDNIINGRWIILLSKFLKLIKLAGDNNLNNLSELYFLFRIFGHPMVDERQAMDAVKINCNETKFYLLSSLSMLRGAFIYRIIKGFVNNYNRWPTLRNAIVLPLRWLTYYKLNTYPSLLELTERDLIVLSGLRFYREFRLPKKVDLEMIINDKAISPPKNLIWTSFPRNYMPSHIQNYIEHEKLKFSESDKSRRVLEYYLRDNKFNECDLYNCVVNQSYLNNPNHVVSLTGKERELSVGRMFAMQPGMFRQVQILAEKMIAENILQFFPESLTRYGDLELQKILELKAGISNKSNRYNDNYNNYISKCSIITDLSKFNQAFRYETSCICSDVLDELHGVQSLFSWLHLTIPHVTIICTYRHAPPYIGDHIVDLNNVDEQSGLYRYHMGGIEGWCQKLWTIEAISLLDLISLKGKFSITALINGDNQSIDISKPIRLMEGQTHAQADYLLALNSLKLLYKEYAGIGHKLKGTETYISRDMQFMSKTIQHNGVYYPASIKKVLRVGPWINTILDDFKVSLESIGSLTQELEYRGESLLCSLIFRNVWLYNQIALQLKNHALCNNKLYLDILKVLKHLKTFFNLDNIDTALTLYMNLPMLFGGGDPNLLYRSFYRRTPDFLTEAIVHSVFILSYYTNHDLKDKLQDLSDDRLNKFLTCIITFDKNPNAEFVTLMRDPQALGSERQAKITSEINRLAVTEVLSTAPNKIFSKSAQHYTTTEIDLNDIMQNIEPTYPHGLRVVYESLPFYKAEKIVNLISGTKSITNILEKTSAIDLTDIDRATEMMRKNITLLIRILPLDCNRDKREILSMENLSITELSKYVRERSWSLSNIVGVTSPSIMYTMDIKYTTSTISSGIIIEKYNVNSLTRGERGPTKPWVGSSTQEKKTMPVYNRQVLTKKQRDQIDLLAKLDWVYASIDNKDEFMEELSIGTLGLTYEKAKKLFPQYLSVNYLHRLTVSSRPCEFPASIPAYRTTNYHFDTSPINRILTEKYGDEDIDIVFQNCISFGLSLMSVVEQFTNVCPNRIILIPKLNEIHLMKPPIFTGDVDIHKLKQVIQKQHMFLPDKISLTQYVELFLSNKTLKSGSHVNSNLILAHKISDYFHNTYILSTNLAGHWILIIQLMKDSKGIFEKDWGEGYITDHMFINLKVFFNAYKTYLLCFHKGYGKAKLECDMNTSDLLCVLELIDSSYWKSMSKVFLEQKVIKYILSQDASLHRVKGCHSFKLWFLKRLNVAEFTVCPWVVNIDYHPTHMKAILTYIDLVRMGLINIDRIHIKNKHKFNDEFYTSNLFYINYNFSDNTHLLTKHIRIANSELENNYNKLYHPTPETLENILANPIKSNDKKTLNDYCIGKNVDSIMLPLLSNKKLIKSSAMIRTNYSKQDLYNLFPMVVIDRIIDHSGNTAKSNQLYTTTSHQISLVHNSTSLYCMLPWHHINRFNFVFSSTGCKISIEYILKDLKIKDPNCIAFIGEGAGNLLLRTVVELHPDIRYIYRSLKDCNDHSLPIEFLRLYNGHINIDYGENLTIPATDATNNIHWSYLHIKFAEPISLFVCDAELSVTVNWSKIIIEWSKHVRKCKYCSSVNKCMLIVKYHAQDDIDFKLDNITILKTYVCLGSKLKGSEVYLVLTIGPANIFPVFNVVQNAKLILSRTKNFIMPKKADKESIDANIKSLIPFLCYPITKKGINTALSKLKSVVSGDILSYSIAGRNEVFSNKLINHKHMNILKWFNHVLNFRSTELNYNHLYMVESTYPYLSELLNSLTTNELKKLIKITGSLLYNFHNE
Sequence of recombinant RSV complex (P03421 whole entry, further chain): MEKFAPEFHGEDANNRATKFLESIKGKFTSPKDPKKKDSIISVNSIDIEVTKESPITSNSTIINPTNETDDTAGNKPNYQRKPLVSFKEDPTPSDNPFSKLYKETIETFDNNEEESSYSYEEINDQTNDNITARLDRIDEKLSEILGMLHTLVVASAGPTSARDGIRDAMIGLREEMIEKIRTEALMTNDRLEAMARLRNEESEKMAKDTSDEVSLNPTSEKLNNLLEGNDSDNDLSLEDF

In the case of `COc1cc(C(=O)NC[C@@](O)(c2cc([C@]3(C)CCN3)cc(-c3ccc(F)cc3)n2)C(F)(F)F)ccc1OC[C@@H](C)O` (racemic) [Compound 14], in data set [1], the CC50 at 5 days is 10 to 100 µM. Moreover, the IC50 at recombinant RSV complex was under 1 µM. The same compound returned an EC50 in data set [2] (setting [3]) of under 1 µM.

Consider `COc1cc(C(=O)NC[C@@](O)(c2cc(C3(C)CCN3)cc(-c3ccc(F)cc3)n2)C(F)(F)F)ccc1OC[C@@H](C)O` (single isomer, unassigned) [Compound 15], for which, in data set [1], the CC50 at 5 days lay within 10 to 100 µM. Besides, the IC50 on recombinant RSV complex is under 1 µM. Besides, the EC50 in data set [2] (setting [3]) was under 1 µM. `COc1cc(C(=O)NC[C@@](O)(c2cc3c(c(-c4ccc(F)cc4)n2)NC[C@@]3(C)N)C(F)(F)F)ccc1OCCO` (single isomer, unassigned) [Compound 51] had a CC50 at 5 days in data set [1] of over 100 µM. In addition, the IC50 at recombinant RSV complex is under 1 µM. This compound came in with an EC50 in data set [2] (setting [3]) of under 1 µM. Take `COc1cc(C(=O)NC[C@](O)(c2cc3c(c(-c4ccc(F)cc4)n2)NC[C@]3(C)N)C(F)(F)F)ccc1OCCO` (single isomer, unassigned) [Compound 53]: the IC50 on recombinant RSV complex was under 1 µM.

As to `COc1cc(C(=O)NCC(O)(c2cc3c(c(-c4ccc(F)cc4)n2)OCC3(C)N)C(F)(F)F)cc2c1NC(=O)C2` (centres unmarked) [Compound 9], the IC50 at recombinant RSV complex was under 1 µM.

`COc1cc(C(=O)NCC(O)(c2cc3c(c(-c4ccc(F)cc4)n2)OC[C@@]3(C)N)C(F)(F)F)cc2c1OC(=O)NC2` (some centres unmarked) [Compound 17]: the IC50 at recombinant RSV complex is under 1 µM.

As for `CC1(N)COc2c1cc(C(O)(CNC(=O)c1ccc(OC3CC3)c(OC3CC3)c1)C(F)(F)F)nc2-c1ccc(F)cc1` (centres unmarked) [Compound 25], the CC50 at 5 days in data set [1] fell in the range of 10 to 100 µM. The IC50 on recombinant RSV complex was under 1 µM. On to `COc1cc(C(=O)NCC(O)(c2cc3c(c(-c4ccccc4)n2)OCC3(C)N)C(F)(F)F)ccc1OCCO` (centres unmarked) [Compound 27], for which, in data set [1], the CC50 at 5 days is 10 to 100 µM. On recombinant RSV complex, the IC50 is under 1 µM. `COc1cc(C(=O)NCC(O)(c2cc3c(c(-c4ccc(F)cc4)n2)OCC3(C)N)C(F)(F)F)ccc1C#CCO` (centres unmarked) [Compound 28]: on recombinant RSV complex, the IC50 was under 1 µM. In addition, the concentration for a half-maximal effect (EC50) in data set [2] (setting [3]) is under 1 µM.

In the case of `CC1(N)COc2c1cc(C(O)(CNC(=O)c1cc3c(c(OC4CC4)c1)OC(=O)NC3)C(F)(F)F)nc2-c1ccc(F)cc1` (centres unmarked) [Compound 32], at recombinant RSV complex, the IC50 was under 1 µM. On to `CC1(N)COc2c1cc(C(O)(CNC(=O)c1ccc3c(c1)OCCN3CCO)C(F)(F)F)nc2-c1ccc(F)cc1` (centres unmarked) [Compound 33], for which the IC50 on recombinant RSV complex is under 1 µM. Besides, in data set [2] (setting [3]), the EC50 is under 1 µM. For the compound `CC1(N)COc2c1cc(C(O)(CNC(=O)c1ccc(OC3CC3)c(OCCO)c1)C(F)(F)F)nc2-c1ccc(F)cc1` (centres unmarked) [Compound 35], at recombinant RSV complex, the IC50 was under 1 µM. As for `COc1ccc(C(=O)NCC(N)(c2cc(C(C)(C)N)cc(-c3ccc(F)cc3)n2)C(F)(F)F)cc1OCCO` (centres unmarked) [Compound 42], the IC50 at recombinant RSV complex is under 1 µM.

With `CC1(N)COc2c1cc(C(O)(CNC(=O)c1cnc(OCCO)cc1O)C(F)(F)F)nc2-c1ccc(F)cc1` (centres unmarked) [Compound 46], the CC50 at 5 days in data set [1] was over 100 µM. As for `COc1nc(C(=O)NCC(O)(c2cc3c(c(-c4ccc(F)cc4)n2)OCC3(C)N)C(F)(F)F)cc2oc(=O)[nH]c12` (centres unmarked) [Compound 48], in data set [1], the CC50 at 5 days lay within 10 to 100 µM. Moreover, the IC50 on recombinant RSV complex was under 50 µM. Take `COc1cc(C(=O)NCC(O)(c2nc(-c3ccc(F)cc3)c3ccccn23)C(F)(F)F)ccc1OCCO` (centres unmarked) [Compound 54]: on recombinant RSV complex, the IC50 was under 50 µM.

Regarding `CC(C)(N)c1cc(-c2ccc(F)cc2)nc([C@](O)(CNC(=O)c2ccc(OCCO)c(OC3CC3)c2)C(F)(F)F)c1` [Compound 56], the IC50 on recombinant RSV complex was under 1 µM. Still for that read-out and setting: as for `CC(C)(N)c1cc(-c2ccc(F)cc2)nc([C@](O)(CNC(=O)c2ccc(OC3CC3)c(OCCO)c2)C(F)(F)F)c1` [Compound 58], the figure is under 1 µM; as for `COc1cc(C(=O)NC[C@@](O)(c2cc3c(c(-c4ccc(F)cc4)n2)OC[C@@]3(C)N)C(F)(F)F)ncc1OCCO` [Compound 77], under 1 µM. Turning to `COc1cc(C(=O)NCC(O)(c2cn(C(C)(C)CN)cc(-c3ccc(F)cc3)c2=O)C(F)(F)F)ccc1OCCO` (centres unmarked) [Compound 78], the IC50 at recombinant RSV complex is under 50 µM. `COc1cc(C(=O)NC[C@@](O)(c2cc3c(c(-c4ccc(F)cc4)n2)OC[C@@]3(C)N)C(F)(F)F)cc2ccn(CCO)c12` [Compound 89]: the IC50 on recombinant RSV complex is under 1 µM. For the compound `COc1cc(C(=O)NC[C@@](O)(c2cc3c(c(-c4ccc(F)cc4)n2)OC[C@@]3(C)N)C(F)(F)F)cc2c1NCCC2` [Compound 96], the IC50 at recombinant RSV complex is under 1 µM. Moreover, the EC50 in data set [2] (setting [3]) is under 1 µM. For `COc1nc(C(=O)NC[C@@](O)(c2cc3c(c(-c4ccc(F)cc4)n2)NC[C@@]3(C)N)C(F)(F)F)cc2c1NC(=O)C2` [Compound 99], at recombinant RSV complex, the IC50 was under 1 µM.

Turning to `COc1cc(C(=O)NC[C@@](O)(c2cc3c(c(-c4ccc(F)cc4)n2)NCC[C@]3(C)N)C(F)(F)F)ccc1OC[C@@H](C)O` [Compound 100], on recombinant RSV complex, the IC50 was under 50 µM. `COc1cc(C(=O)NCC(O)(c2cc3c(c(-c4ccc(F)cc4)n2)OCC32CCN2)C(F)(F)F)ccc1OCCO` (centres unmarked) [Compound 109] had a CC50 at 5 days in data set [1] of 10 to 100 µM. Besides, the IC50 at recombinant RSV complex was under 1 µM. On to `C[C@@]1(N)COc2c1cc([C@](O)(CNC(=O)c1ccc(Cl)s1)C(F)(F)F)nc2-c1ccc(F)cc1` [Compound 110], for which, in data set [1], the CC50 at 5 days was in the range of 10 to 100 µM. `COc1cc(C(=O)NC[C@@](O)(c2cc3c(C)c[nH]c3c(-c3ccc(F)cc3)n2)C(F)(F)F)ccc1OCCO` [Compound 111] registered a CC50 at 5 days in data set [1] of 10 to 100 µM. The IC50 on recombinant RSV complex was under 1 µM.

As to `COc1cc(C(=O)NCC(O)(c2cc(C3(C)CCNC3)cc(-c3ccc(F)cc3)n2)C(F)(F)F)ccc1OCCO` (centres unmarked) [Compound 116], in data set [1], the CC50 at 5 days was 10 to 100 µM. Further, at recombinant RSV complex, the IC50 is under 1 µM. For the compound `C[C@@]1(N)CNc2c1cc([C@](O)(CNC(=O)c1ccc(OC3CC3)c(OC3CC3)c1)C(F)(F)F)nc2-c1ccc(F)cc1` [Compound 126], the IC50 at recombinant RSV complex was under 1 µM. The compound further returned an EC50 in data set [2] of under 1 µM. Turning to `CC[C@]1(N)COc2c1cc([C@](O)(CNC(=O)c1ccc(OC[C@@H](C)O)c(OC)c1)C(F)(F)F)nc2-c1ccc(F)cc1` [Compound 133], the half-maximal inhibitory concentration (IC50) on recombinant RSV complex is under 1 µM. Same read-out and setting: under `COc1cc(C(=O)NCC(O)(c2nc(-c3ccc(F)cc3)n3ccccc23)C(F)(F)F)ccc1OCCO` (centres unmarked) [Compound 137] stands under 1 µM.

For the origin of these results see patent US10358453B2, “Antiviral compounds” (priority 2015, dated 2019).
